From publication PMC4591937 (Science translational medicine, 2015) come the findings set out here.

Series [1] can be described thus: Binding to human plasma proteins by rapid equilibrium dialysis. Type of series: in vitro ADME. Background: In equilibrium dialysis free small molecules cross a membrane that holds back macromolecules.
For a further series, the target named is ERβ (Homo sapiens, UniProt Q92731). In words: Estrogen receptor. Format: binding.
The test system of series [2] is lipid peroxidation. Nature of the series: Inhibition of lipid peroxidation, ferric thiocyanate. Type of series: biochemical. Particulars: average ± SEM, n = 3.
Series [3] can be described thus: Drug distribution / pharmacokinetics in OVX rats. Type of series: in vivo, rat.
Another series concerns uterus of OVX rodents. Type of series: in vivo. To be noted: for Vaginal smear cytology during and after treatment: OVX rats.
In the next series the target is T1, ERα (Homo sapiens, UniProt P03372).
T1 sequence (P03372 1-595): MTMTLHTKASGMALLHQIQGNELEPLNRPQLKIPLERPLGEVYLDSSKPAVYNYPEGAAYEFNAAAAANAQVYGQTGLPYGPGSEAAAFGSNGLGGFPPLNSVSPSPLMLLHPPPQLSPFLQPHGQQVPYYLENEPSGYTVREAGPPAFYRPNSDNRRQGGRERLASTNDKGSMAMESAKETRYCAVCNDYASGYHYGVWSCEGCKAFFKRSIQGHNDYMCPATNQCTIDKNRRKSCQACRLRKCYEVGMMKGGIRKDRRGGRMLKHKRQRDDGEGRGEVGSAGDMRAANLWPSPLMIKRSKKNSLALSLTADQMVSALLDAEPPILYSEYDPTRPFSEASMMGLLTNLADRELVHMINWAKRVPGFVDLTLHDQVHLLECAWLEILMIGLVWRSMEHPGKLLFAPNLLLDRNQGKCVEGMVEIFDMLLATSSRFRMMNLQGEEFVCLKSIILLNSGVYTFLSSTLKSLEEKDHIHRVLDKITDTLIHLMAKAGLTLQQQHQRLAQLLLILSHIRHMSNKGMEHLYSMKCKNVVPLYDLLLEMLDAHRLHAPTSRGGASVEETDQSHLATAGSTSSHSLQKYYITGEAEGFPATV
Nature of the series: Estrogen receptor. Format: binding.

In series [4] the test system is middle-aged OVX Fisher-344 rats. Nature of the series: Delay match-to-sample plus maze test. Type of series: in vivo, rat. To be noted: continuous s.c. minipump 4 μg daily, 48 days, versus control.
A further series has as its system OVX Sprague-Dawley rats. In words: Transient middle cerebral artery occlusion. Format: in vivo, rat.
Series [5] concerns lipid peroxidation. In words: Inhibition of lipid peroxidation, thiobarbituric acid reactive substances. Type of series: biochemical. Particulars: average ± SEM, n = 3.
The next series relates to CD1 mice. In words: Forced swim test. Type of series: in vivo, mouse.
The test system of another series is OVX rat. In words: OVX rat hot flush model. Format: in vivo. Particulars: p.o. 30 μg/kg.
In series [6] the test system is ERE-luciferase reporter under transcriptional control of ERs. In words: Bioluminescence imaging in OVX repTOP ERE-Luc mice. Type of series: in vivo, mouse. Particulars: DHED s.c. or p.o. ≥200 μg/kg; E2 s.c. 20 μg/kg.
The next series concerns human MCF7-Ca xenografts. Nature of the series: MCF-7Ca xenograft growth in nude mice. Format: in vivo, mouse. Particulars: 100 μg/kg s.c. daily for 8 weeks.
The next series concerns OVX rat brain. Nature of the series: Markers of estrogenic effects in the brain. Type of series: in vivo. To be noted: for Progesterone receptor (PR) expression in the preoptic area of the hypothalamus: OVX Sprague-Dawley rats, DHED s.c. 50 μg/kg, ICI 182,780 s.c. 1 mg/kg 1 h before DHED.
For the next series, the system named is ERα in MCF-7Ca cells. Nature of the series: ERα transactivation in MCF-7Ca breast cancer cells. Type of series: cell-based, human. To be noted: cultured MCF-7Ca cells, 1 nM.
Setting [7] is: 0.8 to 100 μg/kg s.c. 1 h before tMCAO.

≈ marks a conversion by molar mass, not a printed value.

Sequence of ERβ (Q92731 whole entry, species assumed): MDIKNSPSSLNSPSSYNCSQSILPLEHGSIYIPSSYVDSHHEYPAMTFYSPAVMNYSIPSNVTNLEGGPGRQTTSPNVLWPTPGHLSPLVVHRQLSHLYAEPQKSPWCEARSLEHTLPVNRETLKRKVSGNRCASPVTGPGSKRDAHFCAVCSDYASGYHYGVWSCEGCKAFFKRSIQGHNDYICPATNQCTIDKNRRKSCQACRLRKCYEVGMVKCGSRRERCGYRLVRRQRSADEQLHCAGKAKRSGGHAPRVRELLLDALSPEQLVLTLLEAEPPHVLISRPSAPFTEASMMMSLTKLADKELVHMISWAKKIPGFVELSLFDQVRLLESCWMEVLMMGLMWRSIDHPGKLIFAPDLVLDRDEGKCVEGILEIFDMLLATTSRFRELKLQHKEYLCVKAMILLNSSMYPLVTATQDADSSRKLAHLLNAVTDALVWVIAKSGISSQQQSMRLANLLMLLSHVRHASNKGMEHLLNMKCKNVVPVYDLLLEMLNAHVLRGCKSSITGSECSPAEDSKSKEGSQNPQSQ

Consider `C[C@]12CC[C@H]3[C@@H](CCC4=CC(=O)C=C[C@@]43O)[C@@H]1CC[C@@H]2O` [DHED, 10β,17β-dihydroxyestra-1,4-dien-3-one], for which the “Binding to human plasma proteins” value in series [1] (human) came out at 58.0 ± 0.6%. Besides, the IC50 against ERβ was over 10 µM. Moreover, the “Inhibition of lipid peroxidation: IC50, FTC” value in the series on lipid peroxidation [2] is “n.i”. The “Prodrug level in the brain” value in series [3] (OVX rats after systemic dosing) was “did not detect DHED in the brain”. Also, in [3] (PK studies of E2 in brain and serum, p.o. (table S1)), the Oral absorption result is given as “complete absorption after oral administration”. This compound registered a half-life in series [3] (female, Sprague-Dawley, rat, serum, iv, 200 ug/kg) of 5.1 ± 0.6 min. Further, in the series on uterus of OVX rodents (OVX Swiss-Webster mice, 50 μg/kg s.c. daily for 5 days, versus control), the “Expression of estrogen-regulated uterine proteins” value is recorded as “no changes in the expression”. The “Vaginal smear cytology during and after treatment” value in the series with uterus of OVX rodents is listed as “remained continuously in diestrus”. For the same compound, the “Wet uterus weight gain (uterotrophic effect)” value with uterus of OVX rodents (OVX rodents, i.v., s.c., p.o. or 48-day s.c. minipump) was “did not result in wet uterus weight gain”. Moreover, the solubility in the series “physchem” was determined as 60.3 ± 1.7 µg/mL (≈ 209 µM). On ERα, the IC50 was over 10 µM. Further, the Working memory errors result in [4] was “significantly decreased working memory errors”. Further, in the series on OVX Sprague-Dawley rats (100 μg/kg s.c. after tMCAO), the “Neuroprotection with post-infarct treatment” value was “had a neuroprotective effect”. Also, in the series on OVX Sprague-Dawley rats (setting [7]), the Infarct volume result is listed as “dose-dependent reduction of the infarct volumes” and the “Neurological deficits (ND score)” value was “attenuation of neurological deficits”. Also, the “Inhibition of lipid peroxidation: IC50, TBARS” value in the series with lipid peroxidation [5] was “n.i”. Also, in the series with CD1 mice (10 μg/kg s.c. daily for 5 days, 1 h after last injection), the “Antidepressant-like activity in the FST” value is listed as “outperformed direct administration of E2”. Also, the Tail-skin temperature rise entry in the series on OVX rat is “blunted the tail-skin temperature rise”. In series [6], the “ERE reporter activation / bioluminescence in peripheral tissues” value is on record as “did not activate the ERE reporter construct”. For the same compound, the “Growth of aromatase-transfected MCF-7Ca xenografts” value with human MCF7-Ca xenografts is given as “did not stimulate the growth”. The “ChAT-IR stereological cell counts in medial septum and vertical diagonal band” value with OVX rat brain (OVX Fischer 344 rats, 4 μg/day s.c. pumps, 48 days) was “increased choline acetyltransferase immunoreactive (ChAT-IR) stereological cell counts”. Also, in the series on OVX rat brain (OVX Fischer 344 rats, 10 μg s.c. every four days for 40 days), the “Dendritic spines and spine heads in hippocampal CA1 neurons” value was “increased the number of dendritic spines and spine heads”. Also, the “Progesterone receptor (PR) expression in the preoptic area of the hypothalamus” value in the series on OVX rat brain is on record as “stimulated progesterone receptor (PR) expression”.
With `C[C@]12CCC(=O)C=C1CC[C@@H]1[C@@H]2CC[C@]2(C)C(=O)CC[C@@H]12` [Δ^4A, Δ^4-androstenedione], the ERα transactivation entry in the series on ERα in MCF-7Ca cells is reported as “induced the expected cancer-promoting ERα transactivation”.
Take `C[C@]12CC[C@@H]3c4ccc(O)cc4CC[C@H]3[C@@H]1CC[C@@H]2O` [Compound E2, 17β-estradiol, reference compound]: in [1] (average ± SEM, n = 3), the “Binding to human plasma proteins” value is given as 97.8 ± 0.3%. Besides, the IC50 with lipid peroxidation [2] (read-out: Inhibition of lipid peroxidation: IC50, FTC) is 11.8 ± 1.6 µM; in the series on lipid peroxidation [5] (read-out: Inhibition of lipid peroxidation: IC50, TBARS), 3.9 ± 0.4 µM. Further, the “Vaginal smear cytology during and after treatment” value with uterus of OVX rodents is listed as “vaginal smears with many cornified cells”. Further, the ERα transactivation result with ERα in MCF-7Ca cells is reported as “induced the expected cancer-promoting ERα transactivation”. In addition, in series [6], the “ERE reporter activation / bioluminescence in peripheral tissues” value is on record as “significant increase of photon emission from the hepatic area”.
With 16,16,17-d3-DHED, the “Site of labelled E2 formation from deuterated prodrug” value in [3] (OVX Sprague-Dawley rats, i.v., tissue 15 min post-dosing) is on record as “d3-E2 was produced exclusively in the brain”.
Turning to `C[C@]12CC[C@@H]3c4ccc(O)cc4C[C@@H](CCCCCCCCC[S+]([O-])CCCC(F)(F)C(F)(F)F)[C@H]3[C@@H]1CC[C@@H]2O` (stereo partly shown) [ICI 182,780], the “Effect of ER antagonist on antidepressant-like effect of E2 and DHED” value in the series with CD1 mice (4 mg/kg s.c. co-injected with E2 or DHED 50 μg/kg s.c., 5 days) is listed as “completely blocked this antidepressant-like effect”. In the series with CD1 mice (15 min after completion of the FST, systemic dosing), the “Brain concentration by LC-MS/MS” value was found to be 6.6 ±0.9 ng/g tissue. Moreover, the “Progesterone receptor (PR) expression in the preoptic area of the hypothalamus” value with OVX rat brain is reported as “abolished the effect of DHED treatment on PR induction”.

The term IC50 denotes the point on the concentration scale where inhibition reaches its midpoint. A word on the half-life: it is the time needed for the level to fall by half in the phase considered. Read a high half-life as slow loss. In general, solubility refers to the dissolved amount per volume that the medium holds. The low end stands for a poorly soluble substance, the high end for a readily soluble substance.
